Reference: US7776566B2, “Method for producing purine nucleoside by fermentation” (priority 1997, dated 2010)

Experiments:
Format in all cases: biochemical, E. coli
[1] = target: T1, PRPP synthetase (Prs) D128A (Escherichia coli, UniProt P0A717, D129A); experiment: PRPP synthetase activity of crude enzyme extracts and inhibition by ADP (mutant prsDA); settings: mutant type
T1 construct: made in house; host or cells: E. coli JM109 (crude enzyme extract)
Protocol: A prs fragment was excised from the plasmid carrying the prs of about 1 kb cloned in Section 1) by SalI and SphI digestion, and inserted between the SalI and SphI sites of the multi-cloning site of a plasmid for introducing mutation, pKF19k (Takara Shuzo) to obtain the target clone (pKFprs). […] It is also described that the enzyme whose Asp (D) at position 128 is mutated to Ala (A) is partially desensitized. Therefore, the following synthetic DNA primer was prepared for gene substitution realizing mutation of Asp (D) at position 128 PRPP synthetase (Prs) to Ala (A), and pKFprs was subjected to site-directed mutagenesis according to the protocol of Site-directed Mutagenesis System Mutan-Super Express Km (Takara Shuzo) to introduce a site-directed mutation into the pKFprs. […]
Recombinant bacteria obtained by transforming E. coli JM109 cells with the above four plasmids were cultured in LB liquid medium for eight hours, and collected, and crude enzyme extracts were prepared from them. The PRPP synthetase activity of the extracts and degrees of inhibition by ADP were measured according to the method of K. F. Jensen et al. (Analytical Biochemistry, 98, 254-263 (1979)) which was partially modified. Specifically, [a-^32P]ATP was used as the substrate and [^32P]AMP produced by the reaction was measured.

[2] = target: T2, PRPP amidotransferase (PurF) K326Q (Escherichia coli, UniProt P0AG16, K327Q); experiment: PRPP amidotransferase activity of crude enzyme extracts and inhibition by AMP and GMP (mutant purF, pKFpurFKQ); settings: JM109/pKFpurFKQ crude extract, activity with None 0.34
T2 construct: made in house; host or cells: E. coli JM109 (crude enzyme extract)
T2 sequence (P0AG16 2-505 K327Q): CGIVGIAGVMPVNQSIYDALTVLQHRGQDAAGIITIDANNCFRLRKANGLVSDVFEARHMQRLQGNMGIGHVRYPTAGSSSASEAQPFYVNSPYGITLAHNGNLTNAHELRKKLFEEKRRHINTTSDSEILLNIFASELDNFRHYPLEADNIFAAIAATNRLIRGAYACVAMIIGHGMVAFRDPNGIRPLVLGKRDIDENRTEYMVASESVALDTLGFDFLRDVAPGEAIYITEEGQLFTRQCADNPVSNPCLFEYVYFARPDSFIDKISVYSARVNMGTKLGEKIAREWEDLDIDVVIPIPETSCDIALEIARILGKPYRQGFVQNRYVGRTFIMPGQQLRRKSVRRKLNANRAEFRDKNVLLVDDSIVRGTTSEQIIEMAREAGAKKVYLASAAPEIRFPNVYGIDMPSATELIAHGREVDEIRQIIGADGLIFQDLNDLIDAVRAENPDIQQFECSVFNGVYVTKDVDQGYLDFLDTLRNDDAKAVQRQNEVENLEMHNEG
Protocol: (§1) A purF fragment was excised from the plasmid carrying the purF of about 1530 bp cloned into pCRTMII vector (Invitrogen) in Section 1) by digestion with PstI and HindIII, and inserted between the PstI and HindIII sites of the multi-cloning site of a plasmid for introducing mutation, pKF18 (Takara Shuzo) to obtain the target clone (pKFpurF). […] Therefore, the following synthetic DNA primers were prepared for gene substitution realizing mutations of Lys (K) at position 326 and Pro (P) at position 410 of PRPP amidotransferase (PurF) to Gln (Q) and Trp (W), respectively, and pKFpurF was subjected to site-directed mutagenesis according to the protocol of Site-directed Mutagenesis System Mutan-Super Express Km (Takara Shuzo) to introduce a site-directed mutation into the pKFpurF.
(§2) After the mutagenesis, 6 clones were randomly picked up from each of the resulting transformants, and plasmids were prepared from them. […]
(§3) Recombinant bacteria obtained by transforming E. coli JM109 cells with the above plasmids were cultured in LB liquid medium for eight hours, and collected, and crude enzyme extracts were prepared from them. The PRPP amidotransferase activity of the extracts and degrees of inhibition by AMP and GMP were measured according to the method of L. J. Messenger (J. Biol. Chem., 254, 3382 (1979)).

[3] = target: T3, PRPP amidotransferase (PurF), wild type (Escherichia coli, UniProt P0AG16); experiment: PRPP amidotransferase activity of crude enzyme extracts and inhibition by AMP and GMP (wild type purF, pKFpurF); settings: JM109/pKFpurF crude extract, activity with None 0.68
T3 construct: made in house; host or cells: E. coli JM109 (crude enzyme extract)
T3 sequence (P0AG16 2-505): as the sequence (P0AG16 2-505 K327Q) above, with Q326K counted along it
Protocol: as §3

[4] = target: T4, PRPP amidotransferase (PurF) K326Q + P410W (Escherichia coli, UniProt P0AG16, K327Q/P411W); experiment: PRPP amidotransferase activity of crude enzyme extracts and inhibition by AMP and GMP (mutant purF, pKFpurFKQPW); settings: JM109/pKFpurFKQPW crude extract, activity with None 0.18
T4 construct: made in house; host or cells: E. coli JM109 (crude enzyme extract)
T4 sequence (P0AG16 2-505 K327Q/P411W): as the sequence (P0AG16 2-505 K327Q) above, with P410W counted along it
Protocol: as §1, §2, §3

Nc1ncnc2c1ncn2[C@@H]1O[C@H](COP(=O)(O)OP(=O)(O)O)[C@@H](O)[C@H]1O [ADP, adenosine diphosphate]
PRPP synthetase (Prs) specific activity, 5 mM ADP ([1]; JM109/pSTVprsDA, medium copy, activity with None 10.6): 2.7 nmole/min/mg crude enzyme extract | PRPP synthetase (Prs) specific activity, 5 mM ADP ([1]; JM109/pUCprsDA, high copy, activity with None 80.8): 20.2 nmole/min/mg crude enzyme extract

Nc1ncnc2c1ncn2[C@@H]1O[C@H](COP(=O)(O)O)[C@@H](O)[C@H]1O [AMP, adenosine monophosphate]
PRPP amidotransferase activity, 10 mM AMP ([2]; 10 mM AMP): 0.32 µmol/min/mg | PRPP amidotransferase activity, 10 mM AMP ([3]; 10 mM AMP): 0.48 µmol/min/mg | PRPP amidotransferase activity, 10 mM AMP ([4]; 10 mM AMP): 0.16 µmol/min/mg

Nc1nc2c(ncn2[C@@H]2O[C@H](COP(=O)(O)O)[C@@H](O)[C@H]2O)c(=O)[nH]1 [GMP, guanosine monophosphate]
PRPP amidotransferase activity, 10 mM GMP ([2]; 10 mM GMP): 0.33 µmol/min/mg | PRPP amidotransferase activity, 10 mM GMP ([3]; 10 mM GMP): 0.10 µmol/min/mg | PRPP amidotransferase activity, 10 mM GMP ([4]; 10 mM GMP): 0.17 µmol/min/mg
